Molecular target: MS (malate synthase, GlcB, Rv1837c) (Mycobacterium tuberculosis, UniProt P9WK17)
Experiment: DTNB assay of released CoA-SH at […] nm
Format: biochemical

Chain of MS (malate synthase, GlcB, Rv1837c) (P9WK17 whole entry, looked up): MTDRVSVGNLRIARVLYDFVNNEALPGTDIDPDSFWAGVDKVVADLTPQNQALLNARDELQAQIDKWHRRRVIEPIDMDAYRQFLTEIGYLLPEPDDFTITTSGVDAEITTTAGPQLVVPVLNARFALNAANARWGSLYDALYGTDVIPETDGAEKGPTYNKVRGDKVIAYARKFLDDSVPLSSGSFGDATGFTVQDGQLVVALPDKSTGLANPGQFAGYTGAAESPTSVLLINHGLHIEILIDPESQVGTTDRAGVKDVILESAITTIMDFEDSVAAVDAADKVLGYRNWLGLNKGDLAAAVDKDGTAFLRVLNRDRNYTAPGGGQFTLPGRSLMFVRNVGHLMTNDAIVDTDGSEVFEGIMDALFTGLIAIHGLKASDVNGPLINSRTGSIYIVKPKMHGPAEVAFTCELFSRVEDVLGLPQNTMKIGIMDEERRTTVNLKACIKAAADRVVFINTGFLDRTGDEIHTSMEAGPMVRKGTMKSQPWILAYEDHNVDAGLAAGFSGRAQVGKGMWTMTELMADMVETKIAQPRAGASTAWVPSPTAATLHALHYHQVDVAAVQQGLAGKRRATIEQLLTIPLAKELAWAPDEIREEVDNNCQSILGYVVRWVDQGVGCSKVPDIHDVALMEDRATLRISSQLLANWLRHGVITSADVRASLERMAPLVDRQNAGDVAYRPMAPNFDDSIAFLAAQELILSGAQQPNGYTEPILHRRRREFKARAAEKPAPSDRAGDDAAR

Row | SMILES | IC50
1 | O=C(O)C(=O)CBr [bromopyruvate] | 114 µM
2 | C=C(OP(=O)(O)O)C(=O)O [phosphoenolpyruvate] | 374 µM

— paper PMC6849348, “Theranostic Application of a Novel G-Quadruplex-Forming DNA Aptamer Targeting Malate Synthase of Mycobacterium tuberculosis” (Molecular Therapy. Nucleic Acids, 2019)
